Reference: PubChem BioAssay AID330 (DTP/NCI, 2004)
Where “and” joins values, the source holds several entries; their conditions need not be identical. Identical values can stand only once. Inconclusive results and toxic doses are left out.

System: P388 leukemia ip, CD2F1 mice, survival T/C
Test: NCI In Vivo Anticancer Drug Screen. Data for tumor model P388 Leukemia (intraperitoneal) in CD2F1 (CDF1) mice
Conditions: endpoint: median survival time, higher = longer survival
Summary of the method: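 Mice carrying the transplanted tumor received test compound or vehicle. Survival was recorded in each group, and the value is the treated-group measurement divided by that of the vehicle-treated control group.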

[1] = dose: 50.0 mg/kg/injection, schedule: Q01DX009 (ip), vehicle: saline
[2] = dose: 100.0 mg/kg/injection, schedule: Q01DX009 (ip), vehicle: saline
[3] = dose: 100.0 mg/kg/injection, schedule: Q01DX009 (ip), vehicle: saline with Tween-80
[4] = dose: 200.0 mg/kg/injection, schedule: Q01DX009 (ip), vehicle: saline with Tween-80
[5] = dose: 400.0 mg/kg/injection, schedule: Q01DX009 (ip), vehicle: saline with Tween-80
[6] = dose: 1.56 mg/kg/injection, schedule: Q01DX009 (ip), vehicle: Klucel (hydroxypropylcellulose) (HPC)
[7] = dose: 100.0 mg/kg/injection, schedule: Q04DX003 (ip), vehicle: Klucel (hydroxypropylcellulose) (HPC)
[8] = dose: 200.0 mg/kg/injection, schedule: Q04DX003 (ip), vehicle: Klucel (hydroxypropylcellulose) (HPC)
[9] = dose: 6.25 mg/kg/injection, schedule: Q01DX009 (ip), vehicle: Klucel (hydroxypropylcellulose) (HPC)
[10] = dose: 12.5 mg/kg/injection, schedule: Q01DX009 (ip), vehicle: Klucel (hydroxypropylcellulose) (HPC)
[11] = dose: 25.0 mg/kg/injection, schedule: Q01DX009 (ip), vehicle: Klucel (hydroxypropylcellulose) (HPC)
[12] = dose: 50.0 mg/kg/injection, schedule: Q01DX009 (ip), vehicle: Klucel (hydroxypropylcellulose) (HPC)
[13] = dose: 60.0 mg/kg/injection, schedule: Q01DX005 (ip), vehicle: saline with Tween-80
[14] = dose: 120.0 mg/kg/injection, schedule: Q01DX005 (ip), vehicle: saline with Tween-80
[15] = dose: 240.0 mg/kg/injection, schedule: Q01DX005 (ip), vehicle: saline with Tween-80
[16] = dose: 200.0 mg/kg/injection, schedule: Q01DX009 (ip), vehicle: saline

SMILES: COc1ccc2nc3cc(Cl)ccc3c(Nc3ccc(O)c(CN(CCCl)CCCl)c3)c2c1
- T/C (dose: 0.06 mg/kg/injection, schedule: Q01DX009 (ip), vehicle: saline with Tween-80): 98 % of control
- T/C (dose: 0.09 mg/kg/injection, schedule: Q01DX009 (ip), vehicle: saline with Tween-80): 89 % of control
- T/C (dose: 0.44 mg/kg/injection, schedule: Q01DX009 (ip), vehicle: saline): 150 % of control
- T/C (dose: 0.6 mg/kg/injection, schedule: Q01DX009 (ip), vehicle: saline with Tween-80): 154 % of control
- T/C (dose: 0.66 mg/kg/injection, schedule: Q01DX009 (ip), vehicle: saline): 160 % of control
- T/C (dose: 1.0 mg/kg/injection, schedule: Q01DX009 (ip), vehicle: saline): 155 % of control
- T/C (dose: 1.5 mg/kg/injection, schedule: Q01DX009 (ip), vehicle: saline): 175 % of control

SMILES: COc1cc(C)c(C(=O)Oc2cc(C)c(C(=O)O)c(O)c2)c(O)c1
- T/C [1]: 90 % of control
- T/C [2]: 95 % of control

SMILES: CCOC(=O)NC(C)(C)CN(C(=O)OCC)c1ccccc1
- T/C [3]: 94 % of control
- T/C [4]: 116 % of control
- T/C (dose: 200.0 mg/kg/injection, schedule: Q04DX003 (ip), vehicle: saline with Tween-80): 95 % of control
- T/C [5]: 116 % of control
- T/C (dose: 400.0 mg/kg/injection, schedule: Q04DX003 (ip), vehicle: saline with Tween-80): 104 % of control

SMILES: CCC1(O)CC2CCc3[nH]c4ccccc4c3CCN(C2)C1 (stereo not drawn)
- T/C (dose: 5.25 mg/kg/injection, schedule: Q01DX005 (ip), vehicle: Klucel (hydroxypropylcellulose) (HPC)): 100 % of control
- T/C (dose: 10.5 mg/kg/injection, schedule: Q01DX005 (ip), vehicle: Klucel (hydroxypropylcellulose) (HPC)): 100 % of control
- T/C (dose: 21.0 mg/kg/injection, schedule: Q01DX005 (ip), vehicle: Klucel (hydroxypropylcellulose) (HPC)): 98 % of control
- T/C (dose: 42.0 mg/kg/injection, schedule: Q01DX005 (ip), vehicle: Klucel (hydroxypropylcellulose) (HPC)): 95 % of control

SMILES: CC1CC(C)CC(C)C(O)/C(C#N)=C/C=C/CC(C2CCCC2C(=O)O)OC(=O)CC(O)C(C)C1 (stereo not drawn)
- T/C (dose: 0.5 mg/kg/injection, schedule: Q01DX009 (ip), vehicle: Klucel (hydroxypropylcellulose) (HPC)): 163 % of control and 169 % of control
- T/C (dose: 0.78 mg/kg/injection, schedule: Q01DX009 (ip), vehicle: Klucel (hydroxypropylcellulose) (HPC)): 150 % of control
- T/C (dose: 1.0 mg/kg/injection, schedule: Q01DX009 (ip), vehicle: Klucel (hydroxypropylcellulose) (HPC)): 151 % of control and 152 % of control
- T/C [6]: 151 % of control
- T/C (dose: 3.13 mg/kg/injection, schedule: Q01DX009 (ip), vehicle: Klucel (hydroxypropylcellulose) (HPC)): 153 % of control

SMILES: CCn1c2ccccc2c2cc(N=Nc3cc4cc5ccccc5cc4cc3N)ccc21
- T/C [7]: 101 % of control
- T/C [8]: 93 % of control

SMILES: CN(C)CCCn1c(=O)nc2n(-c3ccccc3)c3ccccc3nc-2c1=O
- T/C [9]: 100 % of control and 106 % of control
- T/C [10]: 105 % of control
- T/C [11]: 109 % of control
- T/C [12]: 122 % of control

SMILES: COC(=O)C1(C)CCC=CC1Sc1ccccc1 (stereo not drawn)
- T/C [7]: 100 % of control
- T/C [8]: 105 % of control
- T/C (dose: 400.0 mg/kg/injection, schedule: Q04DX003 (ip), vehicle: Klucel (hydroxypropylcellulose) (HPC)): 99 % of control

SMILES: CCCCCC/C(CC(SCC)c1ccccc1Cl)=N\NC(N)=O (stereo not drawn)
- T/C (dose: 60.0 mg/kg/injection, schedule: Q01DX005 (ip), vehicle: saline + Tween-80 + alcohol): 105 % of control
- T/C (dose: 120.0 mg/kg/injection, schedule: Q01DX005 (ip), vehicle: saline + Tween-80 + alcohol): 97 % of control
- T/C (dose: 240.0 mg/kg/injection, schedule: Q01DX005 (ip), vehicle: saline + Tween-80 + alcohol): 100 % of control

SMILES: N/N=C1/C(=O)N(c2ccc(S(N)(=O)=O)cc2)C(=O)C1C(=O)Nc1ccc(S(N)(=O)=O)cc1 (stereo not drawn)
- T/C [13]: 114 % of control
- T/C [14]: 101 % of control
- T/C [15]: 106 % of control

SMILES: COc1ccccc1-n1s/c(=N\OC(=O)c2sc3ccccc3c2Cl)sc1=S
- T/C [1]: 93 % of control
- T/C [2]: 94 % of control
- T/C [16]: 94 % of control

SMILES: O[O][Sn][c]1ccccc1
- T/C (dose: 50.0 mg/kg/injection, schedule: Q01DX009 (ip), vehicle: saline with Tween-80): 100 % of control
- T/C [3]: 100 % of control
- T/C [4]: 86 % of control

SMILES: O=C(O)CSC(c1ccccc1)(c1ccc(-c2ccccc2)cc1)c1cccc2ccccc12 (stereo not drawn)
- T/C (dose: 50.0 mg/kg/injection, schedule: Q01DX005 (ip), vehicle: saline with Tween-80): 95 % of control
- T/C (dose: 100.0 mg/kg/injection, schedule: Q01DX005 (ip), vehicle: saline with Tween-80): 109 % of control
- T/C (dose: 200.0 mg/kg/injection, schedule: Q01DX005 (ip), vehicle: saline with Tween-80): 109 % of control

SMILES: Cc1ccccc1NC(=O)Cc1ccccc1
- T/C [9]: 99 % of control
- T/C [10]: 104 % of control
- T/C [11]: 94 % of control
- T/C [12]: 108 % of control
- T/C (dose: 100.0 mg/kg/injection, schedule: Q01DX009 (ip), vehicle: Klucel (hydroxypropylcellulose) (HPC)): 95 % of control

SMILES: C=CC1(C)CC(O)C2C(C)C(=O)OC2C1C(=C)C (stereo not drawn)
- T/C [3]: 100 % of control
- T/C [4]: 100 % of control
- T/C [5]: 100 % of control

SMILES: CCc1nc(N)nc(-c2nc(N)nc(CC)c2C)c1C
- T/C (dose: 60.0 mg/kg/injection, schedule: Q01DX005 (ip), vehicle: saline): 106 % of control
- T/C (dose: 120.0 mg/kg/injection, schedule: Q01DX005 (ip), vehicle: saline): 104 % of control
- T/C (dose: 240.0 mg/kg/injection, schedule: Q01DX005 (ip), vehicle: saline): 108 % of control

SMILES: O=[N+]([O-])c1cccc(NC(c2ccccc2)S(=O)(=O)O)c1 (stereo not drawn)
- T/C [1]: 104 % of control
- T/C [2]: 114 % of control
- T/C [16]: 106 % of control

SMILES: CCN1CC2(COC)CCC(OC)C34C5CC6C(OC)CC(O)(C5C6O)C(O)(C(OC)C23)C14 (stereo not drawn)
- T/C (dose: 3.75 mg/kg/injection, schedule: Q01DX005 (ip), vehicle: saline + alcohol): 96 % of control
- T/C (dose: 7.5 mg/kg/injection, schedule: Q01DX005 (ip), vehicle: saline + alcohol): 100 % of control
- T/C (dose: 15.0 mg/kg/injection, schedule: Q01DX005 (ip), vehicle: saline + alcohol): 102 % of control
- T/C (dose: 30.0 mg/kg/injection, schedule: Q01DX005 (ip), vehicle: saline + alcohol): 92 % of control
- T/C (dose: 60.0 mg/kg/injection, schedule: Q01DX005 (ip), vehicle: saline + alcohol): 99 % of control

SMILES: O=C1OC(c2c[nH]c3ccccc3c2=O)c2ccccc21 (stereo not drawn)
- T/C [13]: 103 % of control
- T/C [14]: 95 % of control
- T/C [15]: 88 % of control

SMILES: COc1cc2c(c(OC)c1OC)-c1ccc(SCc3ccccc3)c(=O)cc1[C@@H](NC(C)=O)CC2
- T/C [6]: 105 % of control and 111 % of control and 122 % of control
- T/C (dose: 1.56 mg/kg/injection, schedule: Q01DX009 (ip), vehicle: saline with Tween-80): 96 % of control
- T/C (dose: 3.12 mg/kg/injection, schedule: Q01DX009 (ip), vehicle: Klucel (hydroxypropylcellulose) (HPC)): 105 % of control and 123 % of control
- T/C (dose: 3.12 mg/kg/injection, schedule: Q01DX009 (ip), vehicle: saline with Tween-80): 105 % of control
- T/C (dose: 6.25 mg/kg/injection, schedule: Q01DX009 (ip), vehicle: saline with Tween-80): 105 % of control
- T/C [10]: 169 % of control and 214 % of control
- T/C [11]: 92 % of control

SMILES: CCOC(=O)C1=C(C(C)=O)C(c2ccc([N+](=O)[O-])cc2)C(C(C)=O)=C(C(=O)OCC)N1
- T/C (dose: 7.5 mg/kg/injection, schedule: Q01DX005 (ip), vehicle: Klucel (hydroxypropylcellulose) (HPC)): 101 % of control
- T/C (dose: 15.0 mg/kg/injection, schedule: Q01DX005 (ip), vehicle: Klucel (hydroxypropylcellulose) (HPC)): 104 % of control
- T/C (dose: 30.0 mg/kg/injection, schedule: Q01DX005 (ip), vehicle: Klucel (hydroxypropylcellulose) (HPC)): 102 % of control

SMILES: CC1(C)CC(N=[N+]=[N-])CC(C)(C)N1O
- T/C [7]: 100 % of control

SMILES: Clc1ccc(C[P+](c2ccccc2)(c2ccccc2)c2ccccc2)c(Cl)c1
- T/C (dose: 1.25 mg/kg/injection, schedule: Q01DX009 (ip), vehicle: saline sonified): 109 % of control
- T/C (dose: 2.5 mg/kg/injection, schedule: Q01DX009 (ip), vehicle: saline sonified): 109 % of control
- T/C (dose: 5.0 mg/kg/injection, schedule: Q01DX009 (ip), vehicle: saline sonified): 118 % of control
